In patent publication US10653651B2, “Kit for treating cancer with low molecular weight components of aurin tricarboxylic acid complex” (Aurin Biotech Inc., priority 2014, dated 2020):
Where two headings read alike, the source gives them in different places.

Tests used:
[1] = test system: DOHH2 human B-cell carcinoma cell line; assay: DOHH2 cell growth in zymosan-activated human serum (MTT cell viability); format: cell-based; conditions: 15% human serum, n=4, read-out: IC50, inhibition of DOHH2 cell growth induced by zymosan-activated human serum complement
Description: (§1) Experiment 1 was designed to determine the effect of ATA, AHA, AQA and ATAC on U251 cell growth in the presence of complement activated human serum. In Experiment 1(a), U251 cells were treated with various concentrations of human serum (1, 5, 7.5, 10, 12.5, 15%) in DMEM and incubated with 1 μg/mL zymosan at 37° C. for 72 h. Control U251 cells (CON) were incubated in fresh DMEM only. As a further control U251 cells were treated with 10% human serum heated at 56° C. for 30 min to heat inactivate complement (HIS) before incubation with 1 μg/ml zymosan. In Experiment 1(b), U251 cells were treated with various concentrations of ATAC, ATA, AQA and AHA (0.1, 1, 5, 10, 30, 50 μM) in DMEM with 15% human serum and incubated with 1 μg/mL zymosan at 37 ° C. for 72 h. In both Experiments 1(a) and 1(b), following incubation, cell viability was evaluated by MTT (3-[4,5-dimethylthiazol-2-yl]-2,5 diphenyl tetrazolium bromide) assays by adding MTT to the cell cultures to reach a final concentration of 1 mg/mL. Following a 1 h incubation at 37° C., the dark crystals formed were dissolved by adding a SDS/DMF extraction buffer (300 μL, 20% sodium dodecyl sulfate, 50% N,N-dimethylformamide, pH 4.7). Plates were subsequently incubated overnight at 37° C. and optical densities at 570 nm were measured by transferring 100 μL aliquots to 96-well plates and using a plate reader with a corresponding filter.
Experiment 15 was designed to determine the effect of ATA, AQA, 15 AHA and ATAC on DOHH2 human B-cell carcinoma cell growth. The protocol was identical to that used in Experiment 9(b) except DOHH2 human B-cell carcinoma cells were used.

[2] = test system: human colorectal adenocarcinoma cell line LS180; assay: LS180 cell growth in zymosan-activated human serum (MTT cell viability); format: cell-based; conditions: LS180 cells, EMEM, 15% human serum, n=4, read-out: IC50, inhibition of LS180 cell growth induced by zymosan-activated human serum complement
Description: as §1
Experiment 19 was designed to determine the effect of ATA, AQA, AHA and ATAC on growth of the human colorectal adenocarcinoma LS180 cell line. The protocol was identical to that used in Experiment 17(b) except that colorectal adenocarcinoma cells were utilized and the growth medium was EMEM.

A549 cells = assay: Lactic dehydrogenase release from A549 cells; format: cell-based, human; conditions: n=4, read-out: IC50, lactate dehydrogenase release from A549 cells
Description: (§2) Experiment 4 was designed to confirm apoptotic cell death of U251 cells induced by ATA, AQA, AHA, and ATAC by measuring release of lactic dehydrogenase into the cell medium. For serum lactate dehydrogenase determination, reaction supernatants ([…]) were pipetted into the wells of 96-well plates, followed by the addition of […] lactate solution (36 mg/mL in PBS) and […] INT (iodonitrotetrazolium chloride, 2-(4-iodophenyl)-3-(4-nitrophenyl)-5-phenyl-2H-tetrazolium chloride) solution (2 mg/mL in PBS). The enzymatic reaction was started by addition of […] of NAD^+/diaphorase solution (3 mg/mL NAD^+; 2.3 mg solid/mL diaphorase). After 1 h, optical densities were measured with a microplate reader using a 490 nm filter. The amount of LDH released was expressed as a percentage of the value obtained in comparative cells where cells were 100% lysed by 1% Triton X-100.
Experiment 8 was designed to confirm apoptotic cell death of BxPC-3 cells induced by ATA, AQA, AHA, and ATAC by the release of lactic dehydrogenase into the cell medium.
Experiment 12 was designed to confirm apoptotic cell death of A549 cells induced by ATA, AQA, AHA, and ATAC by the release of lactic dehydrogenase into the cell medium. The protocol was identical to that used in Experiment 8 except A549 cells were used.

[3] = test system: DOHH2 human B-cell carcinoma cells; assay: Lactic dehydrogenase release from DOHH2 cells; format: cell-based
Description: as §2
Experiment 16 was designed to determine if apoptotic cell death of DOHH2 human B-cell carcinoma cells was induced by ATA, AQA, AHA, and ATAC as determined by the release of lactic dehydrogenase into the cell medium. The protocol was identical to that used in Experiment 9(d) except that DOHH2 human B-cell carcinoma cells were used.

[4] = test system: BT 474 human breast cancer cell line; assay: BT 474 cell growth in zymosan-activated human serum (MTT cell viability); format: cell-based; conditions: BT 474 cells, 15% human serum, n=4, read-out: IC50, inhibition of BT 474 cell growth induced by zymosan-activated human serum complement
Description: as §1
Experiment 13 was designed to determine the effect of ATA, AQA, AHA and ATAC on BT 474 cell growth. The protocol was identical to that used in Experiment 1(b) except BT 474 cells were used.

[5] = test system: BxPC-3 human pancreatic adenocarcinoma cell line; assay: BxPC-3 cell growth in zymosan-activated human serum (MTT cell viability); format: cell-based; conditions: BxPC-3 cells, RPMI 1640, 15% human serum, 1 μg/mL zymosan, 72 h, n=4, read-out: IC50, inhibition of BxPC-3 cell growth induced by zymosan-activated human serum complement
Description: as §1
Experiment 5 was designed to determine the effect of ATA, AHA, AQA and ATAC on BxPC-3 cell growth in the presence of complement activated human serum.

[6] = test system: U251 malignant glioblastoma human cell line; assay: U251 cell growth in zymosan-activated human serum (MTT cell viability); format: cell-based; conditions: 15% human serum, 1 μg/mL zymosan, 72 h, n=4, read-out: IC50, inhibition of U251 cell growth induced by zymosan-activated human serum complement
Description: To obtain normal serum, blood samples from healthy individuals were treated at 37° C. for 3 h to promote clotting. Samples were then centrifuged at 3,000 g for 10 min and the clear serum was harvested.
The ATAC used comprised approximately 78% ATA, 15% AQA, and 7% AHA. In addition, ATA, AQA and AHA that had been separated by size exclusion chromatography were also tested individually, their purity having been verified by mass spectrometry.
U251 cells were grown in DMEM medium containing 10% fetal bovine serum (FBS), 100 IU/mL penicillin, and 100 μg/mL streptomycin (Invitrogen™, Carlsbad, Ca.) under humidified 5% CO2 and 95% air until confluence was reached. This usually required 3 days of incubation. Aliquots of these cells (˜2×10^5 cells) were added to 24-well plates.
as §1, with “Following a 1 h incubation at 37° C., the dark crystals formed were dissolved by adding a SDS/DMF extraction buffer (300 μL, 20% sodium dodecyl sulfate, 50% N,N-dimethylformamide, pH 4.7).” left out

[7] = test system: K562 human chronic myelogenous leukemia cell line; assay: K562 cell growth in zymosan-activated human serum (MTT cell viability); format: cell-based
Description: as §1
Experiment 17 was designed to determine the effect of ATA, AQA, AHA and ATAC on K562 human chronic myelogenous leukemia cell growth. The protocol was identical to that used in Experiment 15(b) except that K562 human chronic myelogenous were utilized and the growth medium was Iscove's.

[8] = n=4, read-out: IC50, lactate dehydrogenase release from DOHH2 cells
[9] = K562 cells, Iscove's medium, 15% human serum, zymosan, MTT, n=4, read-out: IC50, inhibition of K562 cell growth induced by zymosan-activated human serum complement

| Compound | IC50 ([1]; DOHH-2, DOHH2 cells) | IC50 [2] | IC50 (A549 cells; Homo sapiens) | IC50 ([3]; Homo sapiens, DOHH-2, n=4, read-out: IC50, lactate dehydrogenase release from DOHH2 cells) | IC50 [4] | IC50 [5] | IC50 ([6]; U-251, U251 cells) | IC50 ([7]; Homo sapiens, K562, read-out: IC50, inhibition of K562 cell growth induced by zymosan-activated human serum complement) | IC50 ([1]; DOHH2 cells) | IC50 (A549 cells) | IC50 [3, 8] | IC50 ([6]; U251 cells) | IC50 [7, 9] |
| --- | --- | --- | --- | --- | --- | --- | --- | --- | --- | --- | --- | --- | --- |
| O=C(O)C1=CC(=C(c2ccc(O)c(C(=O)O)c2)c2ccc(O)c(C(=O)O)c2)C=CC1=O [ATA, aurin tricarboxylic acid] | 5.1 µM | 4.8 µM | 7.5 µM | 4.9 µM | 5.9 µM | 6.5 µM | 3.5 µM | 4.5 µM | – | – | – | – | – |
| aurin hexacarboxylic acid [AHA] | – | 5.1 µM | – | – | 5.8 µM | 6.8 µM | – | – | 4.9 µM | 7.6 µM | 5.1 µM | 3.8 µM | 4.6 µM |
| aurin quadracarboxylic acid [AQA] | – | 5.2 µM | – | – | 6 µM | 6.7 µM | – | – | 5 µM | 7.4 µM | 5 µM | 3.7 µM | 4.7 µM |
